Measured values from PubChem BioAssay (NCI).
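96-well plates; 48 h exposure; 5 concentrations. Endpoints by linear interpolation between flanking doses. Not reached: highest tested concentration assigned. TGI: total growth inhibition.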

Experiments:
Test in all cases: DTP human tumour cell line panel, 48 h
UACC-62 melanoma = tested on: UACC-62 melanoma
CAKI-1 renal = tested on: CAKI-1 renal
LOX IMVI melanoma = tested on: LOX IMVI melanoma
U251 CNS = tested on: U251 CNS
K-562 leukemia = tested on: K-562 leukemia
KM12 colon = tested on: KM12 colon
OVCAR-5 ovarian = tested on: OVCAR-5 ovarian
NCI-H460 lung = tested on: NCI-H460 lung
A549 NSCLC = tested on: A549 NSCLC
HOP-92 NSCLC = tested on: HOP-92 NSCLC
786-0 renal = tested on: 786-0 renal
SK-OV-3 ovarian = tested on: SK-OV-3 ovarian
SK-MEL-2 melanoma = tested on: SK-MEL-2 melanoma
SK-MEL-28 melanoma = tested on: SK-MEL-28 melanoma
MOLT-4 leukemia = tested on: MOLT-4 leukemia
ACHN renal = tested on: ACHN renal
UO-31 renal = tested on: UO-31 renal
BT-549 breast = tested on: BT-549 breast
NCI-H23 lung = tested on: NCI-H23 lung
MDA-N = tested on: MDA-N
RPMI-8226 leukemia = tested on: RPMI-8226 leukemia
CCRF-CEM leukemia = tested on: CCRF-CEM leukemia
SW-620 colon = tested on: SW-620 colon
RXF 393 renal = tested on: RXF 393 renal
HT29 colon = tested on: HT29 colon
HCT-116 colon = tested on: HCT-116 colon
SF-539 CNS = tested on: SF-539 CNS
SNB-19 CNS = tested on: SNB-19 CNS
HS 578T breast = tested on: HS 578T breast
T-47D breast = tested on: T-47D breast
SF-295 CNS = tested on: SF-295 CNS
EKVX NSCLC = tested on: EKVX NSCLC
SN12C renal = tested on: SN12C renal
MDA-MB-231 breast = tested on: MDA-MB-231 breast
HOP-62 NSCLC = tested on: HOP-62 NSCLC
COLO 205 colon = tested on: COLO 205 colon
M14 melanoma = tested on: M14 melanoma
SF-268 CNS = tested on: SF-268 CNS
SK-MEL-5 melanoma = tested on: SK-MEL-5 melanoma
HL-60(TB) leukemia = tested on: HL-60(TB) leukemia
SNB-75 CNS = tested on: SNB-75 CNS
OVCAR-4 ovarian = tested on: OVCAR-4 ovarian
A498 renal = tested on: A498 renal
MALME-3M melanoma = tested on: MALME-3M melanoma
OVCAR-8 ovarian = tested on: OVCAR-8 ovarian
NCI-H226 lung = tested on: NCI-H226 lung
DU-145 prostate = tested on: DU-145 prostate
HCC-2998 colon = tested on: HCC-2998 colon
UACC-257 melanoma = tested on: UACC-257 melanoma
PC-3 prostate = tested on: PC-3 prostate
TK-10 renal = tested on: TK-10 renal
NCI-H522 lung = tested on: NCI-H522 lung
SR leukemia = tested on: SR leukemia
HCT-15 colon = tested on: HCT-15 colon
IGROV1 ovarian = tested on: IGROV1 ovarian
MDA-MB-435 = tested on: MDA-MB-435
OVCAR-3 ovarian = tested on: OVCAR-3 ovarian
MCF7 breast = tested on: MCF7 breast

**Q.** What does the source list for `C=C1C(O)C23CCC4C(C(=O)O)(C(=O)O)CC(OC5OC(CO)C(O)C(OC(=O)CCc6ccccc6)C5NC(=O)CC(C)C)CC4(C)C2CCC1(O)C3` (configuration not stated)?
**A.** TGI (UACC-62 melanoma): > 100 µM; TGI (CAKI-1 renal): > 100 µM; TGI (LOX IMVI melanoma): > 100 µM; TGI (U251 CNS): > 100 µM; TGI (K-562 leukemia): > 100 µM; TGI (KM12 colon): > 100 µM; TGI (OVCAR-5 ovarian): > 100 µM; TGI (NCI-H460 lung): > 100 µM; TGI (A549 NSCLC): > 100 µM; TGI (HOP-92 NSCLC): > 100 µM; TGI (786-0 renal): > 100 µM; TGI (SK-OV-3 ovarian): > 100 µM; TGI (SK-MEL-2 melanoma): > 100 µM; TGI (SK-MEL-28 melanoma): > 100 µM; TGI (MOLT-4 leukemia): > 100 µM; TGI (ACHN renal): > 100 µM; TGI (UO-31 renal): > 100 µM; TGI (BT-549 breast): > 100 µM; TGI (NCI-H23 lung): > 100 µM; TGI (MDA-N): > 100 µM; TGI (RPMI-8226 leukemia): > 100 µM; TGI (CCRF-CEM leukemia): > 100 µM; TGI (SW-620 colon): > 100 µM; TGI (RXF 393 renal): > 100 µM; TGI (HT29 colon): > 100 µM; TGI (HCT-116 colon): > 100 µM; TGI (SF-539 CNS): > 100 µM; TGI (SNB-19 CNS): > 100 µM; TGI (HS 578T breast): > 100 µM; TGI (T-47D breast): > 100 µM; TGI (SF-295 CNS): > 100 µM; TGI (EKVX NSCLC): > 100 µM; TGI (SN12C renal): > 100 µM; TGI (MDA-MB-231 breast): > 100 µM; TGI (HOP-62 NSCLC): > 100 µM; TGI (COLO 205 colon): > 100 µM; TGI (M14 melanoma): > 100 µM; TGI (SF-268 CNS): > 100 µM; TGI (SK-MEL-5 melanoma): > 100 µM; TGI (HL-60(TB) leukemia): > 100 µM; TGI (SNB-75 CNS): > 100 µM; TGI (OVCAR-4 ovarian): > 100 µM; TGI (A498 renal): > 100 µM; TGI (MALME-3M melanoma): > 100 µM; TGI (OVCAR-8 ovarian): > 100 µM; TGI (NCI-H226 lung): > 100 µM; TGI (DU-145 prostate): > 100 µM; TGI (HCC-2998 colon): > 100 µM; TGI (UACC-257 melanoma): > 100 µM; TGI (PC-3 prostate): > 100 µM; TGI (TK-10 renal): > 100 µM; TGI (NCI-H522 lung): > 100 µM; TGI (SR leukemia): > 100 µM; TGI (HCT-15 colon): > 100 µM; TGI (IGROV1 ovarian): > 100 µM; TGI (MDA-MB-435): > 100 µM; TGI (OVCAR-3 ovarian): > 100 µM

**Q.** Which TGI (UACC-62 melanoma) does the source give for `CN1CCN(C(=S)N(C(=O)c2cccs2)C2CCCCC2)CC1` here?
**A.** > 100 µM

**Q.** What about the TGI (LOX IMVI melanoma) of the same compound?
**A.** > 100 µM

**Q.** What about the TGI (U251 CNS) of the same compound?
**A.** > 100 µM

**Q.** And the TGI (K-562 leukemia)?
**A.** > 100 µM

**Q.** What about the TGI (KM12 colon) of the same compound?
**A.** > 100 µM

**Q.** What about the TGI (OVCAR-5 ovarian) of the same compound?
**A.** > 100 µM

**Q.** What about the TGI (NCI-H460 lung) of the same compound?
**A.** > 100 µM

**Q.** And the TGI (A549 NSCLC)?
**A.** > 100 µM

**Q.** And the TGI (HOP-92 NSCLC)?
**A.** > 100 µM

**Q.** What about the TGI (786-0 renal) of the same compound?
**A.** > 100 µM

**Q.** What about the TGI (SK-MEL-2 melanoma) of the same compound?
**A.** > 100 µM

**Q.** What about the TGI (SK-MEL-28 melanoma) of the same compound?
**A.** > 100 µM

**Q.** What about the TGI (MOLT-4 leukemia) of the same compound?
**A.** > 10 µM

**Q.** And the TGI (ACHN renal)?
**A.** > 100 µM

**Q.** What about the TGI (UO-31 renal) of the same compound?
**A.** > 100 µM

**Q.** What about the TGI (BT-549 breast) of the same compound?
**A.** > 100 µM

**Q.** What about the TGI (MCF7 breast) of the same compound?
**A.** > 100 µM

**Q.** And the TGI (NCI-H23 lung)?
**A.** > 100 µM

**Q.** What about the TGI (MDA-N) of the same compound?
**A.** > 100 µM

**Q.** And the TGI (RPMI-8226 leukemia)?
**A.** > 100 µM

**Q.** What about the TGI (CCRF-CEM leukemia) of the same compound?
**A.** > 10 µM

**Q.** What about the TGI (SW-620 colon) of the same compound?
**A.** > 100 µM

**Q.** And the TGI (RXF 393 renal)?
**A.** > 100 µM

**Q.** What about the TGI (HT29 colon) of the same compound?
**A.** > 100 µM

**Q.** And the TGI (SNB-19 CNS)?
**A.** > 100 µM

**Q.** What about the TGI (HS 578T breast) of the same compound?
**A.** > 100 µM

**Q.** And the TGI (T-47D breast)?
**A.** > 100 µM

**Q.** And the TGI (SF-295 CNS)?
**A.** > 10 µM

**Q.** What about the TGI (SN12C renal) of the same compound?
**A.** > 100 µM

**Q.** What about the TGI (MDA-MB-231 breast) of the same compound?
**A.** > 100 µM

**Q.** What about the TGI (COLO 205 colon) of the same compound?
**A.** > 100 µM

**Q.** What about the TGI (M14 melanoma) of the same compound?
**A.** > 100 µM

**Q.** And the TGI (SF-268 CNS)?
**A.** > 100 µM

**Q.** What about the TGI (SK-MEL-5 melanoma) of the same compound?
**A.** > 100 µM

**Q.** What about the TGI (HL-60(TB) leukemia) of the same compound?
**A.** 54.2 µM

**Q.** What about the TGI (SNB-75 CNS) of the same compound?
**A.** > 100 µM

**Q.** And the TGI (OVCAR-4 ovarian)?
**A.** > 100 µM

**Q.** What about the TGI (MALME-3M melanoma) of the same compound?
**A.** > 100 µM

**Q.** What about the TGI (OVCAR-8 ovarian) of the same compound?
**A.** > 100 µM

**Q.** And the TGI (NCI-H226 lung)?
**A.** > 100 µM

**Q.** And the TGI (DU-145 prostate)?
**A.** > 100 µM

**Q.** And the TGI (HCC-2998 colon)?
**A.** > 100 µM

**Q.** What about the TGI (UACC-257 melanoma) of the same compound?
**A.** > 100 µM

**Q.** What about the TGI (TK-10 renal) of the same compound?
**A.** > 100 µM

**Q.** And the TGI (NCI-H522 lung)?
**A.** > 100 µM

**Q.** What about the TGI (SR leukemia) of the same compound?
**A.** > 100 µM

**Q.** What about the TGI (HCT-15 colon) of the same compound?
**A.** > 100 µM

**Q.** And the TGI (IGROV1 ovarian)?
**A.** > 100 µM

**Q.** What about the TGI (MDA-MB-435) of the same compound?
**A.** > 100 µM

**Q.** What about the TGI (OVCAR-3 ovarian) of the same compound?
**A.** > 100 µM
